Test results taken from EP3833345B1, “SMALL MOLECULE-INHIBITORS OF 6-PHOSPHOFRUCTO-1-KINASE FOR REDUCING LACTATE GENERATION BY CANCER CELLS” (Kemijski Institut, priority 2018, dated 2020).
“Also recorded” adds a separate entry of the source.

Key:
[1] = test system: COLO 829 cells; experiment: lactate excretion by COLO 829 cells; assay type: cell-based; conditions: for lactate formation in COLO 829 cells, sequential re-insertion: inhibitor added 8 hours after inoculation, then at 24-hour intervals, low concentrations (from 10 µM)
Method: (§1) Preliminary in vivo tests were run by measuring lactate production by three different tumorigenic cell lines. Again, 100 µM concentrations of tested compounds have been added to the medium. For the experiment, the following tumorigenic cells lines originating from different tumours were tested: Caco-2 cells (Figure 10a), originating from colorectal adenoma carcinoma; COLO 829 cells (Figure 10b), isolated from melanoma; and MDA-MB-231 cells (Figure 10c) derived from metastatic phase of mammary/breast cancer. All adherent cell lines were grown in the RPMI 1640 GlutaMAX substrate (Thermo Fisher) supplemented with 10% FBS.
On the basis of preliminary results, inhibitors No. 23, 29, 30 and 31 were tested on COLO 829 cells. […] No significant discrepancies of total cell numbers in respect to the control were observed due to the different concentrations of inhibitors in the medium (Figure 13e). The average percent of dead COLO 829 cells in the control and in the presence of different concentrations of inhibitors were as follows: inh. 23 (9,23±0,6%), inh. 29 (9,31±0,73%), inh. 30 (8,27±0,49%), inh. 31 (8,26±0,38%). Additionally, cytotoxicity of inh. 3 (5,01±1,08%) and 9 (3,65±0,78%) for COLO 829 cells were also determined. No dose dependent decrease of survival was observed by any inhibitor.
(§2) A decrease in inhibitory effectiveness of some compounds was observed after certain period of time (Example 11). […] Therefore, the influence of selected inhibitors was assessed by sequential re-insertion of low concentrations of inhibitors at indicated time points. The inhibitors were first added to the medium 8 hours after the inoculation followed by periodically additions at 24-hour intervals (marked by arrows).
No significant cytostatic (Figure 16f) of cytotoxic effect of inhibitors could be detected after 92 hours of incubation despite of sequential addition of various concentrations of inhibitors. The following average percentages of dead cells were perceived in the medium without and media with inh. 3 (1,95±0,15%) inh. 9 (1,70±0,14%), inh. 23 (2,40±0,09%), inh. 29 (1,66±0,25%) and inh. 30 (1,38±0,18%). No detrimental effects of increased inhibitors concentrations on cell deaths have been observed.

[2] = test system: MDA-MB-231 cells; experiment: lactate excretion by MDA-MB-231 cells; assay type: cell-based; conditions: single addition, different concentrations
Method: as §1
Inhibitors No. 23, 29, 30 and 31 were tested for preventing lactate generation by the MDA-MB-231 cells. […] No significant discrepancies of total cell numbers were observed (Figure 14e) due to the different concentrations of inhibitors in the medium. […] The average percent of dead MDA-MB-231 cells in the control and in the presence of different concentrations of inhibitors were as follows: inh. 23 (2,98±0,2%), inh. 29 (3,37±0,39%), inh. 30 (3,4±0,21%), inh. 31 (6,87±0,44%). Additionally, cytotoxicity of inh. 3 (7,2±0,47%) and 9 (6,59±0,29%) for MDA-MB-231 cells were also determined. No dose dependent decrease of survival was observed by any inhibitor.
as §2
In MDA-MB-231 calls similar results to those found in Caco-2 cells were observed. […] No significant cytostatic (Figure 17f) or cytotoxic effect of inhibitors could be detected after 92 hours of incubation despite of sequential addition of various concentrations of inhibitors. The following average percentages of dead cells were perceived in the medium without and with inh. 3 (2,05±0,18%), inh. 9 (1,85±0,05%), inh. 23 (2,20±0,15%), inh. 29 (1,54±0,16%) and inh. 30 (2,00±0,18%). No detrimental effects of increased inhibitors concentrations on cell deaths have been observed.

[3] = test system: MDA-MB-231 cells; experiment: cytotoxicity in MDA-MB-231 cells (LDH kit); assay type: cell-based; conditions: for average percentages of dead cells, MDA-MB-231, sequential re-insertion: sequential addition at 24-hour intervals, 92 hours, average over medium without and with inhibitor; for average percent of dead MDA-MB-231 cells: single addition, average over control and different concentrations of inhibitor
Method: (§3) Lactate generation, growth yield and survival under normal and inhibitory conditions of three different tumorigenic cells lines were determined in more detailed measurements. […] Cytotoxicity was measured by the Lactate dehydrogenase (LDH) kit (Roche).
Inhibitors No. 23, 29, 30 and 31 were tested for preventing lactate generation by the MDA-MB-231 cells.

[4] = test system: Caco-2 cells; experiment: total cell numbers of Caco-2 cells at end of incubation; assay type: cell-based; conditions: single addition, end of incubation (92 hours)
Method: as §3

[5] = biological target: T1, modified (70 kDa) 6-phosphofructo-1-kinase (PFK-L), sfPFK-L (Homo sapiens, UniProt P17858); experiment: in vitro inhibition of purified recombinant modified PFK-L fragment
T1 sequence (P17858 1-645 limits assumed): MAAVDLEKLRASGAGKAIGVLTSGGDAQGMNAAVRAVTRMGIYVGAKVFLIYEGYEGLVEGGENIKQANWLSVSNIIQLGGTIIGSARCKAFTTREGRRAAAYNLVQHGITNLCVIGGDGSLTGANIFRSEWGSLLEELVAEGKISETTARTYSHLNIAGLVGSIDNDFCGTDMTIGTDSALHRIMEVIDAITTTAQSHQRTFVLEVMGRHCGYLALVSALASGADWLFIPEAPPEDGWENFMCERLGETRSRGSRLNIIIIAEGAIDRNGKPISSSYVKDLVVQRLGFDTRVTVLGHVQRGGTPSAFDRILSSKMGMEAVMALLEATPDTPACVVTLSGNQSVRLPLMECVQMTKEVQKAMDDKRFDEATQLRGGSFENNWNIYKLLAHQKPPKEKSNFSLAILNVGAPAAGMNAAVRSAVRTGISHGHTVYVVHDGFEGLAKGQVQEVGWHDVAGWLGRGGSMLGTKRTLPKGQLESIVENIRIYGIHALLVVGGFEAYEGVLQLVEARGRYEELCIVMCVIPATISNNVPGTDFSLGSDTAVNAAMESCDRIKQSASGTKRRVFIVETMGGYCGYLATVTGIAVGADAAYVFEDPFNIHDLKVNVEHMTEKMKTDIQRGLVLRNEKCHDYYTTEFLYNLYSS

[6] = test system: COLO 829 cells; experiment: cytotoxicity in COLO 829 cells (LDH kit); assay type: cell-based; conditions: for average percentages of dead cells, COLO 829, sequential re-insertion: sequential addition at 24-hour intervals, 92 hours, average over medium without and with inhibitor; for average percent of dead COLO 829 cells: single addition, average over control and different concentrations of inhibitor
Method: as §3

[7] = test system: Jurkat cells; experiment: growth and survival of Jurkat cells (Countess, Trypan blue); assay type: cell-based
Method: The effects of both inhibitors were tested also on growth of the non-adherent Jurkat cells. Total amount of cells and the number of dead cells was determined by the Countess (Invitrogen, Carlsbad, CA). […].

[8] = test system: Caco-2 cells; experiment: cytotoxicity in Caco-2 cells (lactate dehydrogenase (LDH) kit); assay type: cell-based; conditions: for average percent of dead cells, Caco-2: single addition, average over control and different concentrations of inhibitor
Method: as §3

[9] = test system: Jurkat cells; experiment: NADH levels in Jurkat cells (NADH/NAD fluorometric assay kit); assay type: cell-based, human; conditions: 24 hours after addition, different concentrations
Method: By inhibiting modified PFK-M enzyme in the cancer cells, glycolytic flux should be decreased and concomitantly NADH levels reduced. To verify that, the amounts of reduced pyridine nucleotide was measured by NADH/NAD fluorometric assay kit (Abcam). The Jurkat cells were seeded into the wells of 96 wells plate at 5×10^5 cells per mL. The untreated cells (control) and the cells with specified amounts of added Inhibitors No. 3 and No. 9 were incubated for 24 hours.

[10] = test system: Jurkat cells; experiment: long-term fed-batch cultivation of Jurkat cells (18 days); conditions: 100 µM, fed-batch, 18 days
[11] = test system: Jurkat cells; experiment: lactate excretion by Jurkat cells (enzymatic L-lactic acid kit); assay type: cell-based, human
Method: The cells were incubated in 1 mL volume (24 well plates) at 5% CO2 and 37°C. The inhibitors were added in 100 µM concentration. As a control, equivalent amount of DMSO as used for the addition of inhibitors was supplemented to the medium. The tests started with 1×10^5 cells per mL. Extracellular lactate excreted by the Jurkat cells was measured in the supernatant of the growth medium after the cells were removed by centrifugation at 1500 rpm for 5 minutes. Lactate concentration was determined enzymatically using L-Lactatic acid kit (K-LATE, Megazyme, Ireland).
Measurements of lactate excretion in the tumorigenic Jurkat cells and the cells treated with two selected inhibitors at different concentrations were repeated by more detailed measurements. The growth conditions were identical to those described in Experiment 2. No significant difference in lactate excretion could be observed by the treated and untreated cells during the initial stage of growth that lasted for approximately 12 hours. Later on lactate excretion by the Jurkat cells ceased in the presence of both inhibitors.

[12] = test system: Jurkat cells; experiment: Seahorse XF assay (ECAR and OCR) in Jurkat cells; assay type: cell-based, human
Method: The efficiency of Inhibitors No. 3 and No. 9 was also tested by the determinations of glycolytic capacities in Jurkat cells in the presence and absence of inhibitors. For this purpose, Seahorse XF assay (Agilent Technology) was performed that enables non-destructive measurements of extracellular acidification rate (ECAR) and oxygen consumption rate (OCR) of tested cells. The cells were incubated in […] GlutaMAX medium with 10% FBS and 24 hours before the experiment inhibitors were added (100 µM). Non-adherent Jurkat cells (1×10^6 per mL) were stuck to the bottom of the wells by poly-I-lysine. The experiment was conducted essentially as recommended by Seahorse XF protocol and after 20 minutes of incubation, 1 µM of oligomycin A (ATP synthase inhibitor) and 0,25 µM of Carbonyl cyanide-4-(trifluoromethoxy)phenylhydrazone (FCCP) (mitochondrial oxidative phosphorylation uncoupler) were added to the cells. […] Reduced lactate excretion by the cells treated with both inhibitors might be responsible for reduced ECARs. Although the addition of oligomycin A and FCCP increased the extracellular acidification rate by the cells treated with both inhibitors, similar increase of ECAR was also observed in the untreated cells. […] It implies that inhibited PFK1 enzymes might reduce glycolytic flux and prevent the need for pyruvate reduction into lactate by re-oxidizing redundant cytosolic NADH. Under such conditions pyruvate can enter mitochondria, replenishing tri-carboxylic acids (TCA) cycle and fuelling oxidative respiration.

[13] = test system: Caco-2 cells; experiment: lactate excretion by Caco-2 cells; assay type: cell-based; conditions: single addition, different concentrations (20-80 µM)
Method: Preliminary in vivo tests were run by measuring lactate production by three different tumorigenic cell lines. […] For the experiment, the following tumorigenic cells lines originating from different tumours were tested: Caco-2 cells (Figure 10a), originating from colorectal adenoma carcinoma; COLO 829 cells (Figure 10b), isolated from melanoma; and MDA-MB-231 cells (Figure 10c) derived from metastatic phase of mammary/breast cancer.
as §3
Therefore, the influence of selected inhibitors was assessed by sequential re-insertion of low concentrations of inhibitors at indicated time points. The inhibitors were first added to the medium 8 hours after the inoculation followed by periodically additions at 24-hour intervals (marked by arrows).

Nc1nnc(-c2cc(-c3ccc(O)cc3)on2)o1 [Inhibitor No. 30, 4-[3-(5-amino-1,3,4-oxadiazol-2-yl)isoxazol-5-yl]phenol]
lactate formation in COLO 829 cells, sequential re-insertion [1]: slightly weaker inhibitions | lactate excretion by COLO 829 cells ([1]; single addition, different concentrations): strongest reductions of lactate excretion | lactate excretion by MDA-MB-231 cells [2]: strong inhibition | average percentages of dead cells, MDA-MB-231, sequential re-insertion [3]: 2,00±0,18% | average percent of dead MDA-MB-231 cells [3]: 3,4±0,21% | total cell numbers, Caco-2 [4]: minor dose dependent reductions in total cell numbers | IC50 [5]: 10 µM | average percentages of dead cells, COLO 829, sequential re-insertion [6]: 1,38±0,18% | average percent of dead COLO 829 cells [6]: 8,27±0,49%

COc1ccc(-c2cccc(-c3ccn(Cc4noc(C)n4)n3)c2)nn1 [Inhibitor No. 9, 3-methoxy-6-(3-{1-[(5-methyl-1,2,4-oxadiazol-3-yl)methyl]-1H-pyrazol-3-yl}phenyl)pyridazine]
dead cells ([7]; Jurkat cells stained with Tripan blue): 3,76±0,3% | effect on growth of Jurkat cells (total cell numbers) ([7]; different concentrations, 72 hours): no effect | average percentages of dead cells, Caco-2, sequential re-insertion ([8]; sequential addition at 24-hour intervals, 92 hours, average over medium without and with inhibitor): 5,05±0,62% | average percent of dead cells, Caco-2 [8]: 3,33±0,14% | NADH levels [9]: steadily decreased in dose dependent manner | lactate formation in COLO 829 cells, sequential re-insertion [1]: strong reduction of lactate formation | viability of the Jurkat cells, long-term [10]: remained unchanged | number of cells, long-term ([10]; fresh medium with inhibitor every 48 hours): steadily declined | time at which lactate production was averted ([11]; inhibitor concentrations lower than 200 µM): 36 h | lactate excretion by the Jurkat cells ([11]; preliminary test, 100 µM inhibitor, followed for 48 hours, versus DMSO control): Significantly lowered lactate excretions; also recorded: effectively prevented excretion | average percentages of dead cells, MDA-MB-231, sequential re-insertion [3]: 1,85±0,05% | average percent of dead MDA-MB-231 cells [3]: 6,59±0,29% | average percentages of dead cells, COLO 829, sequential re-insertion [6]: 1,70±0,14% | average percent of dead COLO 829 cells [6]: 3,65±0,78% | ECAR and OCR values prior to the addition of oligomycin A and FCCP ([12]; 100 µM added 24 hours before the experiment, treated versus untreated cells): untreated Jurkat cells revealed higher ECAR and OCR values | oxygen consumption rate after addition of oligomycin A and FCCP ([12]; 100 µM, 1 µM oligomycin A and 0,25 µM FCCP, versus untreated cells): slightly stronger affect

O=C(CCS(=O)(=O)c1ccccc1)Nc1nnc(-c2ccno2)o1 [Inhibitor No. 32, 3-(benzenesulfonyl)-N-(5-isoxazol-5-yl-1,3,4-oxadiazol-2-yl)propanamide]
average percent of dead cells, Caco-2 [8]: 3,97±0,18% | IC50 [5]: 8 µM | lactate generation by Caco-2 cells [13]: strong inhibition at all tested concentrations
